This note sets out measurements from US11491165B2 (Kinoxis Therapeutics Pty Ltd, priority 2016, dated 2022).

In data set [1] the test system is BALB/c mice. Put plainly: Murine social interaction test. Format: in vivo, Mus musculus. The settings on record: male BALB/c mice, i.p., 10 min test 30 min after injection. On the procedure:
Example Testing Effect of WJ0679 on Murine Social Interaction (N=46)
Age: 6-7 weeks at testing
Vehicle: 88% isotonic saline, 10% DMSO, 2% tween 80
Route of administration: intraperitoneal (i.p.) injection
Mice were placed in the arena (40×40×40 cm) in weight and treatment matched pairs of unfamiliar mice for a 10 min test session, commencing 30 min after receiving their i.p. injection. The variables of interest were the time the mice spent in close physical contact with each other and the time each mouse spent engaged in active social investigation (sniffing the other mouse).

The target in data set [2] is T1, vasopressin 1a receptor (V1aR) (Homo sapiens, UniProt P37288).
T1 construct: expressed in transfected cells
T1 sequence (P37288 whole entry): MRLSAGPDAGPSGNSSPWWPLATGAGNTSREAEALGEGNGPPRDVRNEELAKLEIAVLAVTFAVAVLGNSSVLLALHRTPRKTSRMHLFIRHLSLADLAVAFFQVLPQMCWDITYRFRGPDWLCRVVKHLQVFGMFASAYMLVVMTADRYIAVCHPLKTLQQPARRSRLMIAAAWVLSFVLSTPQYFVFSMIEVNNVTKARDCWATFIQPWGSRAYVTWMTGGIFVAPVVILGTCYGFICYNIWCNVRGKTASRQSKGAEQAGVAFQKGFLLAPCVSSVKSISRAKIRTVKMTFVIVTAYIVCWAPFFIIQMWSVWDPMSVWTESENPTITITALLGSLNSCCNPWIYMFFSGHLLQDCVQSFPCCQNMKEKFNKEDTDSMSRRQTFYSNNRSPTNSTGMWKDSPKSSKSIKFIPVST
Put plainly: Competition radioligand binding, [3H]-vasopressin, V1aR-expressing HEK293 membranes. The note with it: [3H]-vasopressin 2 nM, 90 min 4 °C.

Data set [3] concerns the target T2, oxytocin receptor (OXTR), hOTR (Homo sapiens, UniProt P30559).
T2 construct: expressed in transfected cells
T2 sequence (P30559 1-389): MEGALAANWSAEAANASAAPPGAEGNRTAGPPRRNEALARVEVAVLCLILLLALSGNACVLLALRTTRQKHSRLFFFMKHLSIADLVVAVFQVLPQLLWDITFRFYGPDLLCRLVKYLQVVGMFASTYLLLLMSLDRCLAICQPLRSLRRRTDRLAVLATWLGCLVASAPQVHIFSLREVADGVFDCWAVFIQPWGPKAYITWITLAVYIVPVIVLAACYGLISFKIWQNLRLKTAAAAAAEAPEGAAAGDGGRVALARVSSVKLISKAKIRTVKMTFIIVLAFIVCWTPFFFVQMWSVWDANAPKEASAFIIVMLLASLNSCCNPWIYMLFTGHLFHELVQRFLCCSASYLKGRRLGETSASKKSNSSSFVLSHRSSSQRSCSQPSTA
Kind of data set: IP1 accumulation assay, OTR-expressing HEK-293 cells (agonist and antagonist assessment). The format is cell-based. The settings on record: for Emax: HEK293, read-out: OXTR Emax (% OXT); for EC50 (OXTR agonist potency, mean ± s.d.) / EC50: agonist assessment; for EC50 (OXTR agonist potency, mean ± s.d.) / IC50: IP1; for EC50: IP1, 1 h; for OV function: ratio of OXTR functional potency to V1aR functional potency, 'OT only' = function at OXTR only; for IC50: antagonist assessment vs OT 30 nM (~EC70). The essentials:
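Flp-In T-REx HEK-293 cells stably expressing untagged hOTR were induced with tetracycline for 48 h, then exposed 1 h to compound (1 nM-100 μM) alone (agonist mode) or with 30 nM OT (~EC70; antagonist mode). IP1 was measured by HTRF, expressed as % of OT-plus-vehicle and fitted to a 4-parameter logistic curve; n≥3 experiments in duplicate.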

Data set [4] deals with T2, oxytocin receptor (OXTR), hOTR. Put plainly: Competition radioligand binding, [3H]-oxytocin, OTR-expressing HEK293 membranes. The note with it: [3H]-oxytocin 10 nM, 90 min 4 °C.
In data set [5] the target is T1, vasopressin 1a receptor (V1aR). Kind of data set: IP1 accumulation assay, V1aR-expressing HEK-293 cells (agonist and antagonist assessment). Format: cell-based. The settings on record: for EC50: agonist assessment, IP1, 1 h; for IC50: antagonist assessment vs AVP 25 nM (~EC70), IP1.

`Cn1ncc2c1Nc1ccccc1N(C(=O)c1cccc(F)c1)C2` [WJ0679, (3-Fluorophenyl)(1-methyl-4,10-dihydrobenzo[b]pyrazolo[3,4-e][1,4]diazepin-5 (1H)-yl)methanone]: the melting point – broadly, the temperature, or range, at which the solid turns liquid – is 286 to 288 °C (dec.). The “time spent in close physical contact (huddling time)” value in data set [1] (all doses (1, 5, 20 mg/kg), most pronounced at 1 and 5 mg/kg, FIG. 1) is “significantly increased”. In addition, the “active social investigation time” value in data set [1] (doses of 1 and 20 mg/kg, FIG. 2) was “significantly increased”. Also, affinity in data set [2] was put at a Ki of 105 ± 10.5 nM. In addition, in data set [3], the Emax (in general, the greatest response seen or fitted, relative to the assay's reference) was 12.6%; the “EC50 (OXTR agonist potency, mean ± s.d.)” value was determined as 316 ± 108 nM; the EC50 – broadly, the concentration needed to bring the measured effect to its halfway point – turned out to be 406 ± 74 nM; the OV function is given as 0.18. In addition, affinity in data set [4] was put at a Ki of 422 ± 129 nM. Moreover, in data set [5], the EC50 is greater than 10000 nM and the IC50 (in general, the concentration needed to halve the response being measured) is 2200 ± 511 nM.

As for `Cn1ncc2c1Nc1ccccc1N(C(=O)c1ccccc1)C2` [WJ0685, (1-Methyl-4,10-dihydrobenzo[b]pyrazolo[3,4-e][1,4]diazepin-5 (1H)-yl)(phenyl)methanone], the melting point is greater than 300 °C. Also, the Ki (commonly the dissociation constant of the complex between target and ligand, obtained from inhibition or displacement) in data set [2] was 81.6 ± 12.6 nM. In data set [3], the Emax stood at 11.9%; the “EC50 (OXTR agonist potency, mean ± s.d.)” value stood at 297.7 ± 71.3 nM; a half-maximal response (EC50) required 847 ± 244 nM. Besides, the Ki in data set [4] was greater than 10000 nM. In data set [5], this molecule displayed an EC50 greater than 10000 nM and an IC50 greater than 10000 nM.

With `Cn1ncc2c1Nc1ccccc1N(C(=O)C13CC4CC(CC(C4)C1)C3)C2` [WJ0687, ((3r,5r,7r)-Adamantan-1-yl)(1-methyl-4,10-dihydrobenzo[b]pyrazolo[3,4-e][1,4]diazepin-5 (1H)-yl)methanone], the melting point fell in the range of 283 to 285 °C. This molecule yielded a Ki in data set [2] of 377 ± 106 nM. In data set [3], the Emax was determined as 33.3%; the “EC50 (OXTR agonist potency, mean ± s.d.)” value came out at 834 ± 61.1 nM; the concentration giving a half-maximal response (EC50) was 4880 ± 141 nM. Also, the Ki in data set [4] is greater than 10000 nM. Also, in data set [5], the concentration giving a half-maximal response (EC50) was greater than 10000 nM and the IC50 is greater than 10000 nM.

Consider `Cn1ncc2c1Nc1ccccc1N(C(=O)c1cccnc1)C2` [WJ0753, (1-Methyl-4,10-dihydrobenzo[b]pyrazolo[3,4-e][1,4]diazepin-5 (1H)-yl)(pyridin-3-yl)methanone], for which the melting point was 247 to 249 °C (dec.). The molecule further displayed an inhibition constant Ki in data set [2] of 353 nM. In data set [3], the Emax is 9.67%; the “EC50 (OXTR agonist potency, mean ± s.d.)” value is given as 242.1 ± 21.7 nM; a half-maximal effect (EC50) was put at 3530 ± 634 nM; the IC50 was greater than 10000 nM. The Ki in data set [4] was greater than 10000 nM. In data set [5], the EC50 was greater than 10000 nM and the IC50 is greater than 10000 nM.

`Cn1ncc2c1Nc1ccccc1N(C(=O)c1ccc(Cl)cc1)C2` [WJ0755, (4-Chlorophenyl)(1-methyl-4,10-dihydrobenzo[b]pyrazolo[3,4-e][1,4]diazepin-5 (1H)-yl)methanone] had a melting point of 243 to 246 °C. In data set [2], this molecule returned a Ki of 174 ± 57.4 nM. In addition, in data set [3], the Emax was 10.2%; the “EC50 (OXTR agonist potency, mean ± s.d.)” value amounted to 255 ± 59.7 nM; the EC50 was found to be 152 ± 47.3 nM; the OV function is given as 0.09. The affinity in data set [4], expressed as Ki, was 519 ± 110 nM. In data set [5], the EC50 is greater than 10000 nM and the IC50 came to 1670 ± 299 nM.

With `Cn1ncc2c1Nc1ccccc1N(C(=O)c1ccncc1)C2` [WJ0757, (1-Methyl-4,10-dihydrobenzo[b]pyrazolo[3,4-e][1,4]diazepin-5 (1H)-yl)(pyridin-4-yl)methanone], the melting point is 267 to 269 °C (dec.). In data set [2], this molecule showed a Ki of 751 ± 197 nM. In data set [3], this molecule had a half-maximal effective concentration (EC50) greater than 10000 nM and a concentration for half-maximal inhibition (IC50) greater than 10000 nM. Further, the inhibition constant Ki in data set [4] is greater than 10000 nM. In data set [5], this molecule displayed an EC50 greater than 10000 nM and an IC50 greater than 10000 nM.

Turning to `Cn1ncc2c1Nc1ccccc1N(C(=O)c1ccccn1)C2` [WJ0759, (1-Methyl-4,10-dihydrobenzo[b]pyrazolo[3,4-e][1,4]diazepin-5 (1H)-yl)(pyridin-2-yl)methanone], the melting point is 269 to 271 °C (dec.). The molecule also showed a Ki in data set [2] of 1120 ± 260 nM. In data set [3], this molecule came in with an EC50 greater than 10000 nM and an IC50 greater than 10000 nM. The molecule also showed a Ki in data set [4] greater than 10000 nM. In data set [5], this molecule had an EC50 greater than 10000 nM and an IC50 greater than 10000 nM.

Regarding `Cn1ncc2c1Nc1ccccc1N(C(=O)C13CC4CC(F)(CC(F)(C4)C1)C3)C2` [WJ0807dF, ((1r,3R,5S,7r)-3,5-Difluoroadamantan-1-yl)(1-methyl-4,10-dihydrobenzo[b]pyrazolo[3,4-e][1,4]diazepin-5 (1H)-yl)methanone], the melting point was 262 to 264 °C (dec.). The inhibitory constant (Ki) in data set [2] was found to be 2210 nM. Also, in data set [3], the Emax turned out to be 26.7%; the “EC50 (OXTR agonist potency, mean ± s.d.)” value came out at 667.7 nM; the EC50 amounted to 4150 ± 1340 nM. In data set [4], the Ki is greater than 10000 nM. In data set [5], the EC50 is greater than 10000 nM and the IC50 was greater than 10000 nM.

In the case of `Cn1ncc2c1Nc1ccccc1N(C(=O)C13CC4CC(CC(F)(C4)C1)C3)C2` [WJ0807mF, ((1r,3s,5R,7S)-3-Fluoroadamantan-1-yl)(1-methyl-4,10-dihydrobenzo[b]pyrazolo[3,4-e][1,4]diazepin-5 (1H)-yl)methanone], the melting point is 266 to 268 °C (dec.). In data set [2], this molecule showed a Ki of 1090 ± 58.3 nM. In addition, in data set [3], the Emax was determined as 25.3%; the “EC50 (OXTR agonist potency, mean ± s.d.)” value is 632.5 ± 148 nM; the EC50 amounted to 2400 ± 652 nM. Besides, the Ki in data set [4] is greater than 10000 nM. Also, in data set [5], the concentration giving a half-maximal response (EC50) is greater than 10000 nM and the concentration for half-maximal inhibition (IC50) is greater than 10000 nM.

Consider `Cc1ccc(C(=O)N2Cc3cnn(C)c3Nc3ccccc32)cc1C` [WJ5103, (3,4-Dimethylphenyl)(1-methyl-4,10-dihydrobenzo[b]pyrazolo[3,4-e][1,4]diazepin-5 (1H)-yl)methanone], for which the melting point is 254 to 256 °C (dec.). In addition, the affinity in data set [2], expressed as Ki, was 14 ± 2 nM. Further, in data set [3], the Emax stood at 5.87%; the “EC50 (OXTR agonist potency, mean ± s.d.)” value worked out at 147.0 ± 64.3 nM; the EC50 is 109 ± 17.7 nM; the OV function was 0.37. The same molecule came in with a Ki in data set [4] of 117 ± 12.4 nM. In data set [5], this molecule came in with an EC50 greater than 10000 nM and a concentration for half-maximal inhibition (IC50) of 346 ± 90.9 nM.

`Cc1ccc(CN2Cc3cnn(C)c3Nc3ccccc32)cc1C` [WJ05105, 5-(3,4-Dimethylbenzyl)-1-methyl-1,4,5,10-tetrahydrobenzo[b]pyrazolo[3,4-e][1,4]diazepine]: the melting point was in the range of 171 to 173 °C. Also, in data set [2], the Ki was greater than 10000 nM. Moreover, in data set [3], the EC50 is greater than 10000 nM and the IC50 was greater than 10000 nM. The Ki in data set [4] was greater than 10000 nM. Moreover, in data set [5], the 50% effective concentration (EC50) was greater than 10000 nM and the IC50 was greater than 10000 nM.

With `Cc1ccc2c(c1)N(C(=O)c1ccccc1)Cc1cnn(C)c1N2` [WJ07117Me, (1,7-Dimethyl-4,10-dihydrobenzo[b]pyrazolo[3,4-e][1,4]diazepin-5 (1H)-yl)(phenyl)methanone], the melting point was 235 to 238 °C. For the same molecule, in data set [2], the inhibitory constant (Ki) worked out at 924 nM. In data set [3], this molecule gave an EC50 greater than 10000 nM and an IC50 greater than 10000 nM. The same molecule yielded a Ki in data set [4] of 4070 ± 1220 nM. In data set [5], this molecule returned an EC50 greater than 10000 nM and an IC50 greater than 10000 nM.

`COc1ccc2c(c1)N(C(=O)c1ccccc1)Cc1cnn(C)c1N2` [WJ07117MeO, (7-Methoxy-1-methyl-4,10-dihydrobenzo[b]pyrazolo[3,4-e][1,4]diazepin-5 (1H)-yl)(phenyl)methanone] displayed a melting point of 248 to 250 °C. The molecule further displayed a Ki in data set [2] of 374 nM. In data set [3], this molecule registered a 50% effective concentration (EC50) greater than 10000 nM and an IC50 greater than 10000 nM. This molecule also yielded a Ki in data set [4] greater than 10000 nM. Besides, in data set [5], the EC50 is greater than 10000 nM and the IC50 is greater than 10000 nM.
